# Where two headings read alike, the source gives them in different places.
# Assays:
# [1] = tested on: Jurkat NFκB-luciferase cells; test: Jurkat NFκB-Luciferase Assay; format: cell-based; conditions: Homo sapiens
# How it was run: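 Luminescence from One-Glo Ex, read 7 min post-addition, reports NFκB activation in Jurkat luciferase reporter cells. Cells, diluted to 1 million cells/ml in 10% FBS RPMI, were dispensed onto plates holding compound and washed, pre-bound antibody.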
# human DGKα = human DGKα (Homo sapiens, UniProt P23743); test: DGKα Biochemical Activity Assay (ADP-Glo); conditions: recombinant DGKα 1 nM, 100 μM ATP, 18:1 DAG/POPS/octylglucoside micelles, 1 hour at 25° C.; geometric mean; read-out: HTBS DGKa 1X ATP KM IC50;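 also: luminescent detection of ADP produced as DGKα phosphorylates DAG to phosphatidic acid, IC50 from four-parameter nonlinear curve fit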
# human DGKα, sequence (P23743 whole entry): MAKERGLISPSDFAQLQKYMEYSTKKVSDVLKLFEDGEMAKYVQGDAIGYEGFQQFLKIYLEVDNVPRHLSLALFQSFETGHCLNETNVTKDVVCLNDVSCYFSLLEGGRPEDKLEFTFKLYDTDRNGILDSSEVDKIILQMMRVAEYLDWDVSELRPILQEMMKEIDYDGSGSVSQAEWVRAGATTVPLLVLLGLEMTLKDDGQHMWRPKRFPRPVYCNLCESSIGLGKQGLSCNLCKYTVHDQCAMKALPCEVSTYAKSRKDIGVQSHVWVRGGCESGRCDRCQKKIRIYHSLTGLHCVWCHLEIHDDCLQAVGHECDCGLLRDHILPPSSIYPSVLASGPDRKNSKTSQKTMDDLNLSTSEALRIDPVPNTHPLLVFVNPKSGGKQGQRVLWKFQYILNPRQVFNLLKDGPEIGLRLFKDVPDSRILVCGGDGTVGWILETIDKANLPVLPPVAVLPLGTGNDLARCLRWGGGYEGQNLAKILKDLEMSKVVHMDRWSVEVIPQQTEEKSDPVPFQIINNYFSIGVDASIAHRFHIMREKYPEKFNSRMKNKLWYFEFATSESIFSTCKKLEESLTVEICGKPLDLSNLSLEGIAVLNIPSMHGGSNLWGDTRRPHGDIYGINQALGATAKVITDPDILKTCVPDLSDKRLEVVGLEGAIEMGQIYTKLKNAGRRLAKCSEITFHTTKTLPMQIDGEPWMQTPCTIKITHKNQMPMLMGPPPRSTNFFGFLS
# Description: Alternatively, the enzymatic activity of human DGKα was monitored in a biochemical assay in the presence or absence of compounds and using micelles containing 18:1 Diacylglycerol (DAG), 16:0-18:1 PS (POPS) and Octylglucoside as substrate. DGKα activity led to conversion of DAG and ATP to Phosphatidic Acid (PA) and ADP. Levels of ADP were monitored by bioluminescence using the ADP-Glo Kinase Assay (Promega) and were indicative of DGKα activity.
# Recombinant DGKα (Carna Biosciences) in assay buffer (5 μL in 50 mM MOPS [3-(N-morpholino) propanesulfonic acid], pH 7.2; 0.0025% Triton X-100; 1 mM dithiothreitol; 5 mM MgCl2, 200 μM ATP) was added to the compound-containing plate and was incubated for 15 minutes at 25° C. […] The reaction mixture was incubated at 25° C. for 1 hour. ADP-Glo Reagent (10 μL, 10 mM Mg added) provided by the kit was added to each well and incubated at 25° C. for 40 minutes. Then, 20 μL of Kinase Detection Reagent was added and incubated at 25° C. for 40 minutes. Luciferase activity of each well was measured via luminescence on an Envision plate reader (PerkinElmer).
# Least squares curve fittings were performed using a four-parameter variable slope nonlinear regression model. […] IC50 values from multiple experiments were averaged by geometric mean and the standard deviation was calculated.
# [2] = Jurkat NFκB-luciferase cells activated with anti-CD3 antibody (OKT3), 2.5 hrs at 37° C., geometric mean, read-out: DGK NFKb Luciferase EC50
SMILES,"EC50 [1, 2]",IC50 (human DGKα),"EC50 ([1]; Jurkat, […], read-out: DGK NFKb Luciferase EC50 (nM))"
"Cc1nnc2nc(N3CCOCc4c(C#CC(C)(C)NC(=O)c5cn(C)nc5C(F)(F)F)cccc43)c3c(F)cccc3n12 [Example 138, N-(4-(1-(6-fluoro-1-methyl-[1,2,4]triazolo[4,3-a]quinazolin-5-yl)-1,2,3,5-tetrahydrobenzo[e][1,4]oxazepin-6-yl)-2-methylbut-3-yn-2-yl)-1-methyl-3-(trifluoromethyl)-1H-pyrazole-4-carboxamide]",43.3 nM,28.9 nM,–
"Cc1nnc2nc(N3CCOCc4c3ccnc4C#CC(C)(C)C(F)(F)F)c3c(F)cccc3n12 [Example 140, 1-(6-fluoro-1-methyl-[1,2,4]triazolo[4,3-a]quinazolin-5-yl)-6-(4,4,4-trifluoro-3,3-dimethylbut-1-yn-1-yl)-1,2,3,5-tetrahydropyrido[4,3-e][1,4]oxazepine]",4.36 nM,4.52 nM,–
"Cc1nnc2nc(N3CCOCc4c3ccnc4C#CC3(C(C)(F)F)CC3)c3c(F)cccc3n12 [Example 142, 6-((1-(1,1-difluoroethyl)cyclopropyl)ethynyl)-1-(6-fluoro-1-methyl-[1,2,4]triazolo[4,3-a]quinazolin-5-yl)-1,2,3,5-tetrahydropyrido[4,3-e][1,4]oxazepine]",5.03 nM,16.4 nM,–
"Cc1nnc2nc(N3CCOCc4c(C#CC(C)(C)NC(=O)C(C)(C)C(F)(F)F)cccc43)c3c(F)cccc3n12 [Example 144, 3,3,3-trifluoro-N-(4-(1-(6-fluoro-1-methyl-[1,2,4]triazolo[4,3-a]quinazolin-5-yl)-1,2,3,5-tetrahydrobenzo[e][1,4]oxazepin-6-yl)-2-methylbut-3-yn-2-yl)-2,2-dimethylpropanamide]",11.1 nM,4.73 nM,–
"Cc1nnc2nc(N3CCOCc4c(C#CC5(NC(=O)C6(C(F)(F)F)CC6)CC5)cccc43)c3c(F)cccc3n12 [Example 145, N-(1-((1-(6-fluoro-1-methyl-[1,2,4]triazolo[4,3-a]quinazolin-5-yl)-1,2,3,5-tetrahydrobenzo[e][1,4]oxazepin-6-yl)ethynyl)cyclopropyl)-1-(trifluoromethyl) cyclopropane-1-carboxamide]",1.21 nM,6.87 nM,–
"Cc1nnc2nc(N3CCOCc4c(C#CC(C)(C)NC(=O)OC(C)C(F)(F)F)cccc43)c3c(F)cccc3n12 (stereo not shown) [Example 146, 1,1,1-trifluoropropan-2-yl (4-(1-(6-fluoro-1-methyl-[1,2,4]triazolo[4,3-a]quinazolin-5-yl)-1,2,3,5-tetrahydrobenzo[e][1,4]oxazepin-6-yl)-2-methylbut-3-yn-2-yl)carbamate]",20.5 nM,3.54 nM,–
"Cc1nnc2nc(N3CCCc4c(C#CC(C)(C)NC(=O)OC(C)(C)C)cccc43)c3c(F)cccc3n12 [Example 150, Tert-Butyl (4-(1-(6-fluoro-1-methyl-[1,2,4]triazolo[4,3-a]quinazolin-5-yl)-1,2,3,4-tetrahydroquinolin-5-yl)-2-methylbut-3-yn-2-yl)carbamate]",2.48 nM,11.5 nM,–
"Cc1nnc2nc(N3CCCc4c(C#CC(C)(C)NC(=O)C5(C(F)(F)F)CC5)cccc43)c3c(F)cccc3n12 [Example 151, N-(4-(1-(6-fluoro-1-methyl-[1,2,4]triazolo[4,3-a]quinazolin-5-yl)-1,2,3,4-tetrahydroquinolin-5-yl)-2-methylbut-3-yn-2-yl)-1-(trifluoromethyl)cyclopropane-1-carboxamide]",3.59 nM,2.41 nM,–
Cc1nnc2nc(N3CCOCc4c(N5CC6CC(C5)C6(F)F)cccc43)c3c(F)cccc3n12 [Example 153],3.98 nM,82.8 nM,–
"Cc1nnc2nc(N3CCCc4c(N5CCC(C)(C#N)CC5)cccc43)c3c(F)cccc3n12 [Example 155, 1-[1-(6-fluoro-1-methyl-[1,2,4]triazolo[4,3-a]quinazolin-5-yl)-3,4-dihydro-2H-quinolin-5-yl]-4-methyl-piperidine-4-carbonitrile]",5.13 nM,25.6 nM,–
"Cc1nnc2nc(N3CCCc4c(N5CCC(C)(F)CC5)cccc43)c3c(F)cccc3n12 [Example 156, 6-fluoro-5-[5-(4-fluoro-4-methyl-1-piperidyl)-3,4-dihydro-2H-quinolin-1-yl]-1-methyl-[1,2,4]triazolo[4,3-a]quinazoline]",1.02 nM,40.2 nM,–
"Cc1nnc2nc(N3CCCc4c(N5CCC(F)(F)CC5)cccc43)c3c(F)cccc3n12 [Example 157, 5-[5-(4,4-difluoro-1-piperidyl)-3,4-dihydro-2H-quinolin-1-yl]-6-fluoro-1-methyl-[1,2,4]triazolo[4,3-a]quinazoline]",8.23 nM,672 nM,–
"Cc1nnc2nc(N3CCCc4c(N5CCN(C(=O)C(F)F)CC5)cccc43)c3c(F)cccc3n12 [Example 158, 2,2-difluoro-1-[4-[1-(6-fluoro-1-methyl-[1,2,4]triazolo[4,3-a]quinazolin-5-yl)-3,4-dihydro-2H-quinolin-5-yl]piperazin-1-yl]ethanone]",49.3 nM,281 nM,–
"Cc1nnc2nc(N3CCCc4c(N5CCN(C(=O)OC(C)(C)C)CC5)cccc43)c3c(F)cccc3n12 [Example 161, tert-butyl 4-[1-(6-fluoro-1-methyl-[1,2,4]triazolo[4,3-a]quinazolin-5-yl)-3,4-dihydro-2H-quinolin-5-yl]piperazine-1-carboxylate]",–,87.1 nM,5.49 nM
"Cc1nnc2nc(N3CCN(C)Cc4c(C#CC(C)(C)C(F)(F)F)cccc43)c3c(F)cccc3n12 [Example 162, 6-fluoro-1-methyl-5-[4-methyl-6-(4,4,4-trifluoro-3,3-dimethyl-but-1-ynyl)-3,5-dihydro-2H-1,4-benzodiazepin-1-yl]-[1,2,4]triazolo[4,3-a]quinazoline]",3.33 nM,15 nM,–
"Cc1nnc2nc(N3CCN(C)Cc4c(C#CC5(C(F)(F)F)CC5)cccc43)c3c(F)cccc3n12 [Example 164, 6-fluoro-1-methyl-5-[4-methyl-6-[2-[1-(trifluoromethyl)cyclopropyl]ethynyl]-3,5-dihydro-2H-1,4-benzodiazepin-1-yl]-[1,2,4]triazolo[4,3-a]quinazoline]",3.63 nM,13 nM,–

# Further compounds by falling EC50 [1, 2], results first:
"EC50 [1, 2]",IC50 (human DGKα),SMILES,"EC50 ([1]; Jurkat, […], read-out: DGK NFKb Luciferase EC50 (nM))"
53.9 nM,34.6 nM,"Cc1nnc2nc(N3CCCc4c(C#CC(C)(C)O)cc(F)cc43)c3c(F)cccc3n12 [Example 152, 4-(7-fluoro-1-(6-fluoro-1-methyl-[1,2,4]triazolo[4,3-a]quinazolin-5-yl)-1,2,3,4-tetrahydroquinolin-5-yl)-2-methylbut-3-yn-2-ol]",–
41.3 nM,72.6 nM,"Cc1nnc2nc(N3CCOCc4c(C#CC(C)(C)NC(=O)c5cn(C)nc5C(F)F)cccc43)c3c(F)cccc3n12 [Example 139, 3-(difluoromethyl)-N-[3-[1-(6-fluoro-1-methyl-[1,2,4]triazolo[4,3-a]quinazolin-5-yl)-3,5-dihydro-2H-4,1-benzoxazepin-6-yl]-1,1-dimethyl-prop-2-ynyl]-1-methyl-pyrazole-4-carboxamide]",–
28.6 nM,74.9 nM,"Cc1nnc2nc(N3CCCc4c(N5CCN(S(C)(=O)=O)CC5)cccc43)c3c(F)cccc3n12 [Example 160, 6-fluoro-1-methyl-5-[5-(4-methylsulfonylpiperazin-1-yl)-3,4-dihydro-2H-quinolin-1-yl]-[1,2,4]triazolo[4,3-a]quinazoline]",–
16.5 nM,333 nM,Cc1nnc2nc(N3CCCc4c(N5CCN(C(=O)C(F)(F)F)CC5)cccc43)c3c(F)cccc3n12 [Example 159],–
7.74 nM,3.16 nM,"Cc1nnc2nc(N3CCOCc4c(C#CC(C)(C)NC(=O)C5(C(F)(F)F)CC5)cccc43)c3c(F)cccc3n12 [Example 147, N-(4-(1-(6-fluoro-1-methyl-[1,2,4]triazolo[4,3-a]quinazolin-5-yl)-1,2,3,5-tetrahydrobenzo[e][1,4]oxazepin-6-yl)-2-methylbut-3-yn-2-yl)-1-(trifluoromethyl) cyclopropane-1-carboxamide]",–
6.33 nM,7.42 nM,"Cc1nnc2nc(N3CCOCc4c(N5CCC(C)(C#N)CC5)cccc43)c3c(F)cccc3n12 [Example 154, 1-[1-(6-fluoro-1-methyl-[1,2,4]triazolo[4,3-a]quinazolin-5-yl)-3,5-dihydro-2H-4,1-benzoxazepin-6-yl]-4-methyl-piperidine-4-carbonitrile]",–
6.03 nM,4.36 nM,"Cc1nnc2nc(N3CCOCc4c(C#CC(C)(C)NC(=O)OC(C)(C)C)cccc43)c3c(F)cccc3n12 [Example 148, tert-butyl (4-(1-(6-fluoro-1-methyl-[1,2,4]triazolo[4,3-a]quinazolin-5-yl)-1,2,3,5-tetrahydrobenzo[e][1,4]oxazepin-6-yl)-2-methylbut-3-yn-2-yl)carbamate]",–
5.38 nM,14.1 nM,"Cc1nnc2nc(N3CCCc4c(C#CC(C)(C)NC(=O)OC(C)C(F)(F)F)cccc43)c3c(F)cccc3n12 (stereo not shown) [Example 149, 1,1,1-trifluoropropan-2-yl (4-(1-(6-fluoro-1-methyl-[1,2,4]triazolo[4,3-a]quinazolin-5-yl)-1,2,3,4-tetrahydroquinolin-5-yl)-2-methylbut-3-yn-2-yl)carbamate]",–
5.11 nM,4.76 nM,"Cc1nnc2nc(N3CCOCc4c3ccnc4C#CC3(C)CC3)c3c(F)cccc3n12 [Example 141, 1-(6-fluoro-1-methyl-[1,2,4]triazolo[4,3-a]quinazolin-5-yl)-6-((1-methylcyclopropyl)ethynyl)-1,2,3,5-tetrahydropyrido[4,3-e][1,4]oxazepine]",–
3.61 nM,3.85 nM,"Cc1nnc2nc(N3CCOCc4c3ccnc4C#CC3(C(F)(F)F)CC3)c3c(F)cccc3n12 [Example 143, 1-(6-fluoro-1-methyl-[1,2,4]triazolo[4,3-a]quinazolin-5-yl)-6-((1-(trifluoromethyl)cyclopropyl)ethynyl)-1,2,3,5-tetrahydropyrido[4,3-e][1,4]oxazepine]",–

# From patent US11976072B2, “Diacylglycerol kinase modulating compounds” (priority 2021, dated 2024)
